Like-named read-outs stand apart in the source and are kept apart here.
Key:
[1] = ref Chi, unpublished results, cited from earlier work
CYP3A4 [2] = biological target: T1, CYP3A4 (Homo sapiens, UniProt P08684); settings: ref Senomyx, unpublished results; cited from earlier work
CYP3A4 [3] = biological target: T1, CYP3A4; settings: ref Senomyx, unpublished results; cited from earlier work; remark: listed apart in the source
[4] = system: GPCRs, ion channels, nuclear receptors, transporters; settings: 10 μM; ref Senomyx, unpublished results; cited from earlier work
[5] = 28 days oral gavage, highest dose evaluated; ref Senomyx, unpublished results; cited from earlier work
[6] = In vitro metabolism, human liver microsomes; assay type: in vitro ADME; settings: 60 min, with NADPH, positive control
[7] = In vitro metabolism, rat liver microsomes; assay type: in vitro ADME, Sprague-Dawley rat; settings: 60 min, with NADPH, positive control
CHO-WBL cells = settings: ±metabolic activation, up to 5000 μg/mL; cited from earlier work
[8] = system: S. typhimurium strains TA98, TA100, TA1535, TA1537; settings: up to 5000 μg/plate; cited from earlier work
[9] = diet, 92 or 93 days; cited from earlier work
TA1535 = settings: plate incorporation, absence of metabolic activation; cited from earlier work
[10] = system: femoral bone marrow polychromatic erythrocytes; settings: ip, cited from earlier work
[11] = male, cited from earlier work
TA100 = settings: pre-incubation, presence of metabolic activation; cited from earlier work
[12] = female, oral gavage 10 mg/kg bw
[13] = female, oral gavage 30 mg/kg bw
[14] = female, oral gavage 100 mg/kg bw

T1 sequence (P08684 whole entry): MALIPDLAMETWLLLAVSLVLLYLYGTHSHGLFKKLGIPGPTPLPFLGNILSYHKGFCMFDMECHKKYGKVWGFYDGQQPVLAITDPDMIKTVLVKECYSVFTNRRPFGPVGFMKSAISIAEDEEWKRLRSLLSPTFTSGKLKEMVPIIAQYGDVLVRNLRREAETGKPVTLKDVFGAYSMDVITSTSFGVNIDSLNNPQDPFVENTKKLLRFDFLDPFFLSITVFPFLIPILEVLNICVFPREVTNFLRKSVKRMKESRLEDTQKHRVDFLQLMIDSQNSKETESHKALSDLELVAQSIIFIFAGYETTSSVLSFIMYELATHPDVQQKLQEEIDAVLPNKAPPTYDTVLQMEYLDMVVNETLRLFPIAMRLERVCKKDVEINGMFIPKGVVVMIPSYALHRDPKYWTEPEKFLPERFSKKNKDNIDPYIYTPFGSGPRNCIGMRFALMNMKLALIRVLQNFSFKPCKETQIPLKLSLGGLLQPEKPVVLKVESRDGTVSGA

Question: For COc1cccc(CNC(=O)C(=O)NCCc2ccccn2)c1OC [S5456, N^1-(2,3-dimethoxybenzyl)-N^2-(2-(pyridin-2-yl)ethyl)oxalamide], which AUC0-last ([1]; female, iv 1.0 mg/kg bw) is on record?
Answer: Its AUC0-last is 817 ± 186 ng·h/mL.

Question: What about the Cmax ([1]; female, iv 1.0 mg/kg bw) of the same molecule?
Answer: The Cmax was 2398 ± 391 ng/mL.

Question: What about the Tmax ([1]; female, iv 1.0 mg/kg bw) of the same molecule?
Answer: The Tmax was 1.8 min.

Question: And the t1/2 ([1]; female, iv 1.0 mg/kg bw)?
Answer: Its t1/2 is 0.32 h.

Question: What about the “% F” value [1, 12] of the same molecule?
Answer: Its value is 51.4%.

Question: What about the AUC0-last [1, 12] of the same molecule?
Answer: The AUC0-last was 4201 ± 1013 ng·h/mL.

Question: What about the Cmax [1, 12] of the same molecule?
Answer: The Cmax was 3258 ± 1087 ng/mL.

Question: And the Tmax [1, 12]?
Answer: Its Tmax is 15 min.

Question: And the t1/2 [1, 12]?
Answer: The t1/2 was 1.20 h.

Question: And the “% F” value [1, 13]?
Answer: The value was 108.6%.

Question: And the AUC0-last [1, 13]?
Answer: Its AUC0-last is 26610 ± 7306 ng·h/mL.

Question: And the Cmax [1, 13]?
Answer: The Cmax was 10980 ± 1500 ng/mL.

Question: What about the Tmax [1, 13] of the same molecule?
Answer: Its Tmax is 19.8 min.

Question: And the t1/2 [1, 13]?
Answer: Its t1/2 is 1.59 h.

Question: And the “% F” value [1, 14]?
Answer: The value was 250.2%.

Question: What about the AUC0-last [1, 14] of the same molecule?
Answer: The AUC0-last was 204400 ± 44540 ng·h/mL.

Question: What about the Cmax [1, 14] of the same molecule?
Answer: The Cmax was 34670 ± 4196 ng/mL.

Question: What about the Tmax [1, 14] of the same molecule?
Answer: The Tmax was 55.2 min.

Question: And the t1/2 [1, 14]?
Answer: The t1/2 was 2.92 h.

Question: What about the “Fold increase in AUClast for 10-fold increase in oral dose” value (shortened to “Fold increase in AUClast”) ([1]; female) of the same molecule?
Answer: Its value is 48.7 fold.

Question: And the AUC0-last ([1]; male, iv 1.0 mg/kg bw)?
Answer: Its AUC0-last is 757 ± 112 ng·h/mL.

Question: And the Cmax ([1]; male, iv 1.0 mg/kg bw)?
Answer: Its Cmax is 2633 ± 363 ng/mL.

Question: And the Tmax ([1]; male, iv 1.0 mg/kg bw)?
Answer: Its Tmax is 1.8 min.

Question: What about the t1/2 ([1]; male, iv 1.0 mg/kg bw) of the same molecule?
Answer: The t1/2 was 0.32 h.

Question: And the “% F” value ([1]; male, oral gavage 10 mg/kg bw)?
Answer: The value was 39.6%.

Question: What about the AUC0-last ([1]; male, oral gavage 10 mg/kg bw) of the same molecule?
Answer: The AUC0-last was 3001 ± 498 ng·h/mL.

Question: What about the Cmax ([1]; male, oral gavage 10 mg/kg bw) of the same molecule?
Answer: The Cmax was 3120 ± 787 ng/mL.

Question: What about the Tmax ([1]; male, oral gavage 10 mg/kg bw) of the same molecule?
Answer: The Tmax was 15 min.

Question: And the t1/2 ([1]; male, oral gavage 10 mg/kg bw)?
Answer: The t1/2 was 0.95 h.

Question: What about the “% F” value ([1]; male, oral gavage 30 mg/kg bw) of the same molecule?
Answer: Its value is 42.0%.

Question: And the AUC0-last ([1]; male, oral gavage 30 mg/kg bw)?
Answer: Its AUC0-last is 9535 ± 4190 ng·h/mL.

Question: What about the Cmax ([1]; male, oral gavage 30 mg/kg bw) of the same molecule?
Answer: Its Cmax is 7643 ± 2404 ng/mL.

Question: And the Tmax ([1]; male, oral gavage 30 mg/kg bw)?
Answer: Its Tmax is 18.6 min.

Question: What about the t1/2 ([1]; male, oral gavage 30 mg/kg bw) of the same molecule?
Answer: Its t1/2 is 1.09 h.

Question: And the “% F” value ([1]; male, oral gavage 100 mg/kg bw)?
Answer: Its value is 73.9%.

Question: What about the AUC0-last ([1]; male, oral gavage 100 mg/kg bw) of the same molecule?
Answer: Its AUC0-last is 55950 ± 19820 ng·h/mL.

Question: And the Cmax ([1]; male, oral gavage 100 mg/kg bw)?
Answer: Its Cmax is 33070 ± 14550 ng/mL.

Question: And the Tmax ([1]; male, oral gavage 100 mg/kg bw)?
Answer: Its Tmax is 15 min.

Question: And the t1/2 ([1]; male, oral gavage 100 mg/kg bw)?
Answer: The t1/2 was 1.35 h.

Question: What about the “Fold increase in AUClast” value ([1]; male) of the same molecule?
Answer: Its value is 18.6 fold.

Question: What about the “% inhibition at 10 μM” value (CYP3A4 [2]) of the same molecule?
Answer: The value was 51%.

Question: What about the “% inhibition at 10 μM, any CYP isozyme of the panel” value (CYP3A4 [3]) of the same molecule?
Answer: Its value is less than 50%.

Question: And the Significant off-target activities [4]?
Answer: The Significant off-target activities was “No other significant off-target activities”.

Question: What about the NOEL [5] of the same molecule?
Answer: The NOEL was 140 mg/kg bw/day.

Question: For C[C@]12CC[C@H]3[C@@H](CCC4=CC(=O)CC[C@@]43C)[C@@H]1CC[C@@H]2O [testosterone, reference compound], which Turnover [6] is on record?
Answer: Its Turnover is “greater than 85%”.

Question: What about the Turnover [7] of the same molecule?
Answer: Its Turnover is “greater than 85%”.

Question: Which Clastogenicity (CHO-WBL cells) does the source give for COc1ccc(CNC(=O)C(=O)NCCc2ccccn2)c(OC)c1 [S336, N^1-(2,4-dimethoxybenzyl)-N^2-(2-(pyridin-2-yl)ethyl)oxalamide] here?
Answer: The Clastogenicity was “non-clastogenic”.

Question: And the “Mutagenicity, conclusion” value [8]?
Answer: Its value is “non-mutagenic”.

Question: And the NOEL [9]?
Answer: Its NOEL is “at least 100 mg/kg bw/day”.

Question: And the Reverse mutation result (TA1535)?
Answer: The Reverse mutation result was “weakly positive”.

Question: And the “Micronucleated polychromatic erythrocytes vs negative control” value ([10]; up to 800 mg/kg bw, 24, 36, 48 h)?
Answer: Its value is “no statistically significant differences”.

Question: What about the Maximum tolerated dose [10] of the same molecule?
Answer: The Maximum tolerated dose was 800 mg/kg bw.

Question: And the AUC0-last ([11]; iv 0.1 mg/kg bw)?
Answer: The AUC0-last was 65.0 ± 1.3 ng·h/mL.

Question: What about the Cmax ([11]; iv 0.1 mg/kg bw) of the same molecule?
Answer: The Cmax was 207 ± 25.8 ng/mL.

Question: What about the Tmax ([11]; iv 0.1 mg/kg bw) of the same molecule?
Answer: Its Tmax is 1.8 min.

Question: What about the t1/2 ([11]; iv 0.1 mg/kg bw) of the same molecule?
Answer: Its t1/2 is 25.2 min.

Question: What about the “% F” value ([11]; oral gavage 10 mg/kg bw) of the same molecule?
Answer: The value was 89.4%.

Question: And the AUC0-last ([11]; oral gavage 10 mg/kg bw)?
Answer: Its AUC0-last is 5809 ± 444 ng·h/mL.

Question: And the Cmax ([11]; oral gavage 10 mg/kg bw)?
Answer: Its Cmax is 7027 ± 925 ng/mL.

Question: What about the Tmax ([11]; oral gavage 10 mg/kg bw) of the same molecule?
Answer: Its Tmax is 15 min.

Question: And the t1/2 ([11]; oral gavage 10 mg/kg bw)?
Answer: Its t1/2 is 41.4 min.

Question: What about the “% F” value ([11]; oral gavage 30 mg/kg bw) of the same molecule?
Answer: Its value is 114.2%.

Question: What about the AUC0-last ([11]; oral gavage 30 mg/kg bw) of the same molecule?
Answer: Its AUC0-last is 22260 ± 727 ng·h/mL.

Question: And the Cmax ([11]; oral gavage 30 mg/kg bw)?
Answer: The Cmax was 23430 ± 1436 ng/mL.

Question: What about the Tmax ([11]; oral gavage 30 mg/kg bw) of the same molecule?
Answer: Its Tmax is 11.4 min.

Question: What about the t1/2 ([11]; oral gavage 30 mg/kg bw) of the same molecule?
Answer: Its t1/2 is 42.6 min.

Question: And the “% F” value ([11]; oral gavage 100 mg/kg bw)?
Answer: The value was 134.6%.

Question: What about the AUC0-last ([11]; oral gavage 100 mg/kg bw) of the same molecule?
Answer: The AUC0-last was 87490 ± 13350 ng·h/mL.

Question: And the Cmax ([11]; oral gavage 100 mg/kg bw)?
Answer: Its Cmax is 36270 ± 6004 ng/mL.

Question: What about the Tmax ([11]; oral gavage 100 mg/kg bw) of the same molecule?
Answer: The Tmax was 15 min.

Question: What about the t1/2 ([11]; oral gavage 100 mg/kg bw) of the same molecule?
Answer: The t1/2 was 58.8 min.

Question: And the “Fold increase in AUClast” value [11]?
Answer: The value was 15.1 fold.

Question: And the Reverse mutation result (TA100)?
Answer: Its Reverse mutation result is “weakly positive”.
